In patent US20090081322A1, “Process for the preparation of antioxidant conserve from Indian curry leaves (MURRAYA KOENIGII SPRENG.)” (Council of Scientific and Industrial Research, priority 2002, published 2009):

Experiment: Antioxidant assay by β-carotene-linoleate model system
Assay type: biochemical
Conditions: 100 ppm concentration; β-carotene bleaching, 90 min incubation at 50° C.
Experimental: The antioxidant activity of curry leaves extract was evaluated by the β-carotene-linoleate model (Jayaprakasha and Jaganmohan Rao, Z. Naturforsch. 55C, 1018-1022, 2000). 0.2 mg of the β-carotene in 0.5 ml of chloroform, 20 mg of linoleic acid and 200 mg of Tween-40 (polyoxyethylene sorbitan monopalmitate) were mixed together. The chloroform was removed at 40° C. under vacuum using a rotary evaporator. The resulting solution was immediately diluted with 10 ml of triple-distilled water and the emulsion was mixed well for 1 min. The emulsion was further diluted with 40 ml of oxygenated water before use. 4 ml aliquots of this mixture were transferred into different tubes containing 0.2 ml of samples at 100 ppm concentrations in ethanol, butylated hydroxyanisole (BHA) was used for comparative purposes. A control containing 0.2 ml of ethanol and 4 ml of the above mixture was prepared. Optical density (OD) at 470 nm were taken for the all extracts and pure compounds immediately (t=0) at 15 min intervals for 1.5 h (t=90). […] The antioxidant activities (AA) of the samples were evaluated in terms of bleaching the β-carotene using the following formula. AA=100[1−(Ao−At)/(A^oo−A^ot)] where Ao and A^oo are the OD measured at zero time of incubation for test sample and control, respectively. At and A^ot are the OD measured in the test sample and control, respectively, after incubation for 90 min.

**Q.** With COc1ccc(O)c(C(C)(C)C)c1 [BHA, butylated hydroxy anisole] as the compound, how does the antioxidant activity read?
**A.** The antioxidant activity was 90.2%.
